Common to all, as to assay: Equilibrium binding assay, primary cerebellar neuron cultures
Holding throughout (format): cell-based, rat

The test system of one experiment is IGF-I receptor. As to the method:
(§1) Fresh frozen tissue (˜100 mg) was homogenized in 5 volumes of NP-40 lysis buffer (50 mM Tris-HCl, pH 7.5, 1% NP-40, 150 mM NaCl, 1 mM EDTA, 2 mM EGTA) containing protease inhibitors (1 mM PMSF, 0.1 mM TPCK, 1 μg/ml aprotinin, 1 μg/ml pepstatin A, 0.5 μg/ml leupeptin, 1 mM NaF, 1 mM Na4P2O7). Protein concentrations were determined using the bicinchoninic acid (BCA) assay (Pierce, Rockford, Ill.). Exploratory studies determined the amounts of protein and concentrations of radiolabeled ligand required to achieve 20% specific binding. Insulin receptor binding assays were performed using 100 μg protein. IGF-I binding assays required 25 μg protein per sample, and IGF-II receptor binding assays were optimized using 10 μg protein. Competitive equilibrium binding assays were used to assess growth factor binding in relation to ethanol exposure. For total binding, duplicate individual protein samples were incubated in 100 μl reactions containing binding buffer (100 mM HEPES, pH 8.0, 118 mM NaCl, 1.2 mM MgSO4, 8.8 mM dextrose, 5 mM KCl, 1% bovine serum albumin) and 100 nCi/ml of [^125I] (2000 Ci/mmol; […]) insulin, IGF-I, or IGF-II. To measure non-specific binding, replicate samples were identically prepared but with the addition of 0.1 μM unlabeled (cold) ligand.
All reactions were performed in 1.5 ml Eppendorff tubes, and the incubations were performed at 4° C. for 16 hours with gentle platform agitation. Bound radiolabeled tracer was then precipitated by adding 500 μl of 0.15% bovine gamma globulin (prepared in 100 mM Tris-HCl, pH 8.0) followed by 400 μl 37.5% polyethylene glycol 8000 (PEG-8000; prepared in 100 mM Tris-HCl, pH 8.0) to each tube. […] The samples were counted for 1 minute in an LKB CompuGamma CS Gamma counter. Specific binding was calculated by subtracting fmol of non-specific binding, i.e., amount bound in the presence of cold ligand, from the total fmol bound (absence of unlabeled competitive ligand). The results were analyzed and plotted using the GraphPad Prism 4 software (GraphPad Software, Inc., San Diego, Calif.). […]

A further experiment relates to insulin receptor. The method, then:
as §1
(§2) All reactions were performed in 1.5 ml Eppendorff tubes, and the incubations were performed at 4° C. for 16 hours with gentle platform agitation. Bound radiolabeled tracer was then precipitated by adding 500 μl of 0.15% bovine gamma globulin (prepared in 100 mM Tris-HCl, pH 8.0) followed by 400 μl 37.5% polyethylene glycol 8000 (PEG-8000; prepared in 100 mM Tris-HCl, pH 8.0) to each tube. The samples were thoroughly mixed by vortexing, and then incubated on ice for at least 2 hours. The precipitates were collected by centrifuging the samples at 15,000×g for 5 minutes at room temperature. The supernatant fraction, which contained unbound (free) ligand, was transferred in its entirety to a Gamma counting tube (Sarstedt, Newton, N.C.). The Eppendorff tube tip containing the pellet was cut and released directly into a separate Gamma counting tube. The samples were counted for 1 minute in an LKB CompuGamma CS Gamma counter. Specific binding was calculated by subtracting fmol of non-specific binding, i.e., amount bound in the presence of cold ligand, from the total fmol bound (absence of unlabeled competitive ligand). The results were analyzed and plotted using the GraphPad Prism 4 software (GraphPad Software, Inc., San Diego, Calif.).
(§3) In vitro experiments were used to examine the effects of ethanol on receptor binding and choline acetyltransferase (ChAT) and acetylcholinesterase (AChE) expression in cerebellar neurons. Primary neuronal cultures were generated with postnatal day 8 rat pup cerebellar tissue (Nikolic et al. Genes Dev. 10:816 (1996)). The cultures were maintained with Dulbecco's modified Eagle's medium (DMEM) supplemented with 5% fetal calf serum, 4 mM glutamine, 100 μM non-essential amino acid mixture (Gibco-BRL, Grand Island, N.Y.), 25 mM KCl, and 9 g/L glucose. […] Alcohol Clin. Exp. Res. 24:716 (2000); Banerjee et al. Alcohol Clin. Exp. Res. 22:2093 (1998)). Control cultures were identically treated but with water added to the reservoir tray. The chambers were flushed with gas containing 75% nitrogen, 20% oxygen, and 5% carbon dioxide. […] Alternatively, the cells were serum-starved for 12 hours and then stimulated with 10 nM insulin, […], 25 nM IGF-II, or vehicle for 16 hours, and RNA was harvested to measure ChAT and AChE expression.

The next experiment deals with IGF-II receptor. As to the method: as §1, §2, §3
[1] abbreviates: 10 mM for 3 hours, control cerebellar neurons.
The mark [2] stands for this setting: 50 mM ethanol for 96 hours vs control cultures.
[3] abbreviates: 10 mM for 3 hours, control and ethanol-exposed cultures, relative to vehicle-treated cells.

Take `CC(C)CCC[C@@H](C)[C@H]1CC[C@H]2[C@@H]3CC=C4C[C@@H](O)CC[C@]4(C)[C@H]3CC[C@]12C` [cholesterol]: in the experiment with IGF-I receptor (setting [1]), the IGF-I receptor binding entry is recorded as “significantly impaired”. The insulin receptor binding entry in the experiment with insulin receptor (10 mM for 3 hours, control cells) is “no significant effect”. Besides, the insulin-receptor binding result in the experiment with insulin receptor (10 mM for 3 hours, ethanol-treated cells) was “enhanced”. Also, the IGF-II receptor binding result in the experiment on IGF-II receptor (setting [1]) is on record as “significantly impaired”.

For the compound `CCO` [ethanol], the IGF-I receptor binding entry in the experiment on IGF-I receptor (setting [2]) is “significantly reduced”. Further, in the experiment on insulin receptor (setting [2]), the insulin receptor binding result is reported as “significantly reduced”. For the same compound, the IGF-II receptor binding entry in the experiment on IGF-II receptor (setting [2]) is “significantly reduced”.

For the compound Methyl-β-cyclodextrin [MβCD], the IGF-I receptor binding result in the experiment with IGF-I receptor (setting [3]) is “significantly inhibited”. Further, the insulin receptor binding entry in the experiment with insulin receptor (setting [3]) is “significantly inhibited”. Besides, the IGF-II receptor binding result with IGF-II receptor (setting [3]) is given as “significantly inhibited”.
